Measurements taken from patent US10457707B2, “Substituted urea depsipeptide analogs as activators of the CLPP endopeptidase” (priority 2015, dated 2019).
*1 amine or outer side, *2 acyl side, *3 side chain or, on linkers, in order; H or OH if unused. Where a SMILES comes first, the peptide text is derived from it. Bridges are numbered along the chain shown (N, C = ends). [ ]: non-standard residue; d: D form. The star is where a group is joined. ξ: configuration not given here. Phe(3,5-F2) = N[C@@H](Cc1cc(F)cc(F)c1)C(=O)O; NH(1-Me-indolin-5-yl) = CN1CCc2cc(N*)ccc21; Morpholine(3S-CO) = O=C(O)[C@@H]1COCCN1; Pro(4S-Me) = C[C@@H]1CN[C@H](C(=O)O)C1; Pro(4R-Me) = C[C@H]1CN[C@H](C(=O)O)C1; NH(3,4-Me2-phenyl) = Cc1ccc(N*)cc1C; NMeaThr = CN[C@H](C(=O)O)[C@H](C)O; Hyp = O=C(O)[C@@H]1C[C@@H](O)CN1; NH(4-Me-phenyl) = Cc1ccc(N*)cc1; ξNMeThr = CNC(C(=O)O)[C@@H](C)O; aThr = C[C@H](O)[C@H](N)C(=O)O; Pip = O=C(O)[C@@H]1CCCCN1; NMeA = CN[C@@H](C)C(=O)O; X4 = c1cc2c(cc1N*)CCC2; CO = O=C([*:1])[*:2]

Target: T1, Sa-ClpP (Staphylococcus aureus, UniProt Q2G036)
T1 construct: made in house; host or cells: E. coli BL21(DE3)
T1 sequence (Q2G036 1-195): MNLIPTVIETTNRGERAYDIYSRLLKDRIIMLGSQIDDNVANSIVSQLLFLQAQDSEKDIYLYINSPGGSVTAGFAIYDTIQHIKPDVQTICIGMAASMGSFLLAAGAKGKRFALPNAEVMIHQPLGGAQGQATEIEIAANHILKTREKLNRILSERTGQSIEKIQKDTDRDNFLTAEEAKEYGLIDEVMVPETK
Test: Sa-ClpP casein-BODIPY ClpP activation assay, method variant not marked in Table 5
Assay type: biochemical, S. aureus
Details: values without ** or † mark; assay variant not stated; read-out: ClpP Activation EC50
Description: The compounds were assayed in a casein digestion assay in order to determine their effect on ClpP activation. Briefly, the assay was carried out using S. aureus ClpP (“Sa-ClpP”) overexpressed in E. coli BL21(DE3) and purified in a two-step process. Purity of the protein was assessed through SDS PAGE analysis. EC50 evaluations were conducted in triplicate in a 20 μl assay format using a method adapted from Maurizi et al. (Methods Enzymol. (1994) 244:314-331). Each well contained 10 μM saClpP, 25 μg/ml BODIPY FL casein (Invitrogen Corporation, San Diego, Calif.), and test compound in concentrations ranging between 0-1000 μM in assay buffer (50 mM Tris pH 8, 200 mM KCl, and 1 mM TCEP). The reaction took place at 37° C. Fluorescence (excitation 485 nm; emission 528 nm) was measured in five minute intervals over a 45 min period using a BioTek HT fluorescence microplate reader (BioTek Instruments, Inc., Winooski, Vt.). Velocity of each reaction was calculated and data was fit to a dose response curve using GraphPad Prism® software (GraphPad Software, Inc., La Jolla, Calif.). EC50 is the effective concentration of compound which causes 50% activation of S. aureus ClpP in the foregoing BODIPY FL casein assay.
Alternatively, the assay was carried out using EnzCheck Protease Assay (Molecular Probes, Catalog # E6638). The assay was performed in black 384 well, flat bottom, low volume plates (Greiner Bio-One, Monroe, N.C., catalog #784076). 10 μL of Tris*HCl buffer, pH 8.0 with 0.01% Triton X-100 was pipetted into each well using a Well-Mate (Thermo Scientific, Waltham, Mass.). 0.4 μL test compounds or controls (2% DMSO v/v) were added to each well using a Biomek FX liquid handling robot (Beckman Coulter, Indianapolis Ind.). After addition of test compounds and controls, 10 μL of master mix containing 2 μM Sa-ClpP and 2 μM substrate (Bodipy-FL labeled casein) in Tris*HCl buffer, pH 8.0 with 0.01% (v/v) Triton X-100, was pipetted into each well. All assays were performed in triplicate, under linear velocity conditions. Increase in fluorescent signal following activation of Sa-ClpP by test compounds and controls was measured over time period of 30 mins using filters with excitation at 485±15 nm and emission at 520±25 nm on a PHERAstar FS Multilabel reader (BMG, Cary, N.C.). […] Data analysis was done by measuring rate of casein degradation over time (slopes). Computed degradation rates (slopes) were normalized to positive (ADEP4) or negative (DMSO) controls. Using nonlinear regression curve fitting EC50 values and % activation were determined using the equation “log [agonist] vs. Response-variable slope (four parameters)-symmetrical” in the program Prism 6 (GraphPad Software, La Jolla, Calif. USA, www.graphpad.com).
Substituted urea depsipetide analogs were synthesized as described above. The EC50 for ClpP activation was determined in the Sa-ClpP in casein-BODIPY assay as described above. The IC50 for ADEP displacement was determined in the ADEP displacement fluorescent polarization assay as described above; and the IC50 for growth inhibition was determined in the Vero cell cytotoxicity assay as described above. The compound number corresponds to the compound numbers used in Tables 1-4 and the experimental examples described above.

| SMILES | EC50 [nM] |
| --- | --- |
| C[C@@H]1C[C@H]2C(=O)O[C@@H](C)[C@H](NC(=O)[C@H](Cc3cc(F)cc(F)c3)NC(=O)Nc3ccc4c(c3)CCC4)C(=O)N3CCC[C@H]3C(=O)N3CCCC[C@H]3C(=O)N[C@@H](C)C(=O)N2C1 [Compound 302, (S)-3-(3,5-difluorophenyl)-2-(3-(2,3-dihydro-1H-INDEN-5-yl)ureido)-N-((2R,6S,8aS,14aS,20S,21S,23aS)-2,6,21-trimethyl-5,8,14,19,23-pentaoxooctadecahydro-1H,5H,14H,19H-pyrido[2,1-i]dipyrrolo[2,1-c:2′,1′-l][1]oxa[4,7,10,13]tetraazacyclohexadecin-20-yl)propanamide] ({X4-CO}-[Phe(3,5-F2)][aThr]P[Pip]A[Pro(4R-Me)]; ester 2-C) | 480 ± 10 |
| C[C@@H]1C[C@H]2C(=O)O[C@@H](C)[C@H](NC(=O)[C@H](Cc3cc(F)cc(F)c3)NC(=O)Nc3ccc4c(c3)CCN4C)C(=O)N3CCC[C@H]3C(=O)N(C)C([C@@H](C)O)C(=O)N[C@@H](C)C(=O)N2C1 (stereo partly drawn) [Compound 311, (S)-3-(3,5-difluorophenyl)-N-((2R,6S,9R,11aS,17S,18S,20aS)-9-((R)-1-hydroxyethyl)-2,6,10,18-tetramethyl-5,8,11,16,20-pentaoxohexadecahydro-1H,5H,16H-dipyrrolo[2,1-c:2′,1′-l][1]oxa[4,7,10,13]tetraazacyclohexadecin-17-yl)-2-(3-(1-methylindolin-5-yl)ureido)propanamide] ({NH(1-Me-indolin-5-yl)-CO}-[Phe(3,5-F2)][aThr]P[ξNMeThr]A[Pro(4R-Me)]; ester 2-C) | 540 ± 20 |
| Cc1ccc(NC(=O)N[C@@H](Cc2cc(F)cc(F)c2)C(=O)N[C@H]2COC(=O)[C@@H]3C[C@@H](C)CN3C(=O)[C@H](C)NC(=O)[C@@H]3COCCN3C(=O)[C@@H]3C[C@@H](O)CN3C2=O)cc1 [Compound 317, (S)-3-(3,5-difluorophenyl)-N-((6aS,8R,12S,15aS,17R,21S,23aS)-8-hydroxy-17,21-dimethyl-6,11,15,20,23-pentaoxooctadecahydro-6H,11H,15H-[1,4]oxazino[3,4-i]dipyrrolo[2,1-c:2′,1′-l][1]oxa[4,7,10,13]tetraazacyclohexadecin-12-yl)-2-(3-(p-tolyl)ureido)propanamide] ({NH(4-Me-phenyl)-CO}-[Phe(3,5-F2)]S[Hyp][Morpholine(3S-CO)]A[Pro(4R-Me)]; ester 2-C) | 380 ± 30 |
| Cc1ccc(NC(=O)N[C@@H](Cc2cc(F)cc(F)c2)C(=O)N[C@@H]2C(=O)N3C[C@H](O)C[C@H]3C(=O)N3CCCC[C@H]3C(=O)N[C@@H](C)C(=O)N3C[C@H](C)C[C@H]3C(=O)O[C@H]2C)cc1C [Compound 212, (S)-3-(3,5-difluorophenyl)-2-(3-(3,4-dimethylphenyl)ureido)-N-((2R,6S,8aS,14aS,16R,20S,21S,23aS)-16-hydroxy-2,6,21-trimethyl-5,8,14,19,23-pentaoxooctadecahydro-1H,5H,14H,19H-pyrido[2,1-i]dipyrrolo[2,1-c:2′,1′-l][1]oxa[4,7,10,13]tetraazacyclohexadecin-20-yl)propanamide] ({NH(3,4-Me2-phenyl)-CO}-[Phe(3,5-F2)][aThr][Hyp][Pip]A[Pro(4R-Me)]; ester 2-C) | 500 ± 30 |
| Cc1ccc(NC(=O)N[C@@H](Cc2cc(F)cc(F)c2)C(=O)N[C@H]2COC(=O)[C@@H]3C[C@@H](C)CN3C(=O)[C@H](C)NC(=O)C([C@@H](C)O)N(C)C(=O)[C@@H]3CCCN3C2=O)cc1 (stereo partly drawn) [Compound 322, (S)-3-(3,5-difluorophenyl)-N-((2R,6S,9R,11aS,17S,20aS)-9-((R)-1-hydroxyethyl)-2,6,10-trimethyl-5,8,11,16,20-pentaoxohexadecahydro-1H,5H,16H-dipyrrolo[2,1-c:2′,1′-l][1]oxa[4,7,10,13]tetraazacyclohexadecin-17-yl)-2-(3-(p-tolyl)ureido)propanamide] ({NH(4-Me-phenyl)-CO}-[Phe(3,5-F2)]SP[ξNMeThr]A[Pro(4R-Me)]; ester 2-C) | 560 ± 30 |
| Cc1ccc(NC(=O)N[C@@H](Cc2cc(F)cc(F)c2)C(=O)N[C@@H]2C(=O)N3C[C@H](O)C[C@H]3C(=O)N(C)[C@@H](C)C(=O)N[C@@H](C)C(=O)N3C[C@@H](C)C[C@H]3C(=O)O[C@H]2C)cc1 [Compound 214, (S)-3-(3,5-difluorophenyl)-N-((2S,6S,9S,11aS,13R,17S,18S,20aS)-13-hydroxy-2,6,9,10,18-pentamethyl-5,8,11,16,20-pentaoxohexadecahydro-1H,5H,16H-dipyrrolo[2,1-c:2′,1′-l][1]oxa[4,7,10,13]tetraazacyclohexadecin-17-yl)-2-(3-(p-tolyl)ureido)propanamide] ({NH(4-Me-phenyl)-CO}-[Phe(3,5-F2)][aThr][Hyp][NMeA]A[Pro(4S-Me)]; ester 2-C) | 1280 ± 30 |
| Cc1ccc(NC(=O)N[C@@H](Cc2cc(F)cc(F)c2)C(=O)N[C@@H]2C(=O)N3CCC[C@H]3C(=O)N3CCOC[C@H]3C(=O)N[C@@H](C)C(=O)N3C[C@H](C)C[C@H]3C(=O)O[C@H]2C)cc1 [Compound 210, (S)-3-(3,5-difluorophenyl)-2-(3-(p-tolyl)ureido)-N-((6aS,12S,13S,15aS,17R,21S,23aS)-13,17,21-trimethyl-6,11,15,20,23-pentaoxooctadecahydro-6H,11H,15H-[1,4]oxazino[3,4-i]dipyrrolo[2,1-c:2′,1′-l][1]oxa[4,7,10,13]tetraazacyclohexadecin-12-yl)propanamide] ({NH(4-Me-phenyl)-CO}-[Phe(3,5-F2)][aThr]P[Morpholine(3S-CO)]A[Pro(4R-Me)]; ester 2-C) | 400 ± 10 |
| Cc1ccc(NC(=O)N[C@@H](Cc2cc(F)cc(F)c2)C(=O)N[C@@H]2C(=O)N3CCC[C@H]3C(=O)N(C)[C@@H]([C@H](C)O)C(=O)N[C@@H](C)C(=O)N3C[C@@H](C)C[C@H]3C(=O)O[C@H]2C)cc1 [Compound 202, (S)-3-(3,5-difluorophenyl)-N-((2S,6S,9S,11aS,17S,18S,20aS)-9-((S)-1-hydroxyethyl)-2,6,10,18-tetramethyl-5,8,11,16,20-pentaoxohexadecahydro-1H,5H,16H-dipyrrolo[2,1-c:2′,1′-L][1]oxa[4,7,10,13]tetraazacyclohexadecin-17-yl)-2-(3-(p-tolyl)ureido)propanamide] ({NH(4-Me-phenyl)-CO}-[Phe(3,5-F2)][aThr]P[NMeaThr]A[Pro(4S-Me)]; ester 2-C) | 480 ± 30 |
| Cc1ccc(NC(=O)N[C@@H](Cc2cc(F)cc(F)c2)C(=O)N[C@@H]2C(=O)N3C[C@H](O)C[C@H]3C(=O)N3CCOC[C@H]3C(=O)N[C@@H](C)C(=O)N3C[C@H](C)C[C@H]3C(=O)O[C@H]2C)cc1C [Compound 215, (S)-3-(3,5-difluorophenyl)-2-(3-(3,4-dimethylphenyl)ureido)-N-((6aS,8R,12S,13S,15aS,17R,21S,23aS)-8-hydroxy-13,17,21-trimethyl-6,11,15,20,23-pentaoxooctadecahydro-6H,11H,15H-[1,4]oxazino[3,4-i]dipyrrolo[2,1-c:2′,1′-l][1]oxa[4,7,10,13]tetraazacyclohexadecin-12-yl)propanamide] ({NH(3,4-Me2-phenyl)-CO}-[Phe(3,5-F2)][aThr][Hyp][Morpholine(3S-CO)]A[Pro(4R-Me)]; ester 2-C) | 500 ± 10 |
